Assay [1] addresses T1, Ras protein (Homo sapiens, UniProt P01116). Nature of the assay: Nucleotide exchange rate IC50 assay (SOS1, mant-GDP), Example 18. The format is biochemical. From the text: (§1) The IC50 assay measures the reduction effect of a given compound on the guanine nucleotide-exchange rate of Ras protein in the presence of guanine nucleotide exchange protein SOS1, which is a Ras activator. In the assay GDP-loaded Ras is first prepared in a buffer containing the compound at certain concentration and fluorescent guanine nucleotide (mant-GDP). The guanine nucleotide exchange was initiated by the addition of the SOS1 and its rate was reflected in the rate of fluorescence change as a function of time, which was monitored by a reader. The experiment was repeated at different compound concentrations and the IC50 of the compound was defined as the compound concentration at which half of its maximal reduction effect on the guanine nucleotide exchange rate is achieved.

The next assay concerns the target GDP-loaded K-Ras (Homo sapiens, UniProt P01116). Nature of the assay: Thermophoresis binding assay. The method, then: The thermophoresis binding assay measures the changes in the movement of KRAS along a temperature gradient as a result of compound binding. In this assay, K-Ras is fluorescently labeled and the thermophoretic movement is measured by monitoring the fluorescence distribution inside a capillary. Compounds of varies concentrations were titrated and the fluorescence distribution signal was measured after 30 seconds or until the diffusion equilibrium is stable. The apparent binding affinity Kd is calculated by fitting the normalized fluorescence distribution values along the concentration axis.

The target in a further assay is T2, KRAS4B (wild type) (Homo sapiens, UniProt P01116).
T2 construct: purchased Cytoskeleton CS-RS03 (K-Ras4B); CS-SOS1-A (SOS1)
Nature of the assay: K-Ras Nucleotide Exchange Assay-384 (SOS Exchange Assay by Cytoskeleton, GTPx_Cyt_IC50). The format is biochemical. As to conditions: 1 μM KRAS4B, 0.05 μM SOS1, 1.5 μM mant-GDP. As to the method:
Example 16. Evaluation of Biological Activities: K-Ras Nucleotide Exchange Assay-384 (SOS Exchange Assay by Cytoskeleton (GTPx_Cyt_IC50))
This assay is used to evaluate inhibitors of K-ras, by monitoring the inhibition of nucleotide exchange over time, in the presence of the protein SOS.
384-well black, untreated plates (Corning 3820 with NBS or 3821 untreated) were used. K-Ras4B Protein was used, which is wild-type (Cytoskeleton #CS-RS03) with a concnetration of 5 mg/ml, or 200 μM. Human SOS1 Protein, Exchange Domain 564-1049 (Cytoskeleton # CS-SOS1-A) was used in a concentration of 3.03 mg/ml or 50 μM. Mant-GDP triethylammonium salt solution was purchased from Sigma (catalog No. 69244). 1M stock solution of Hepes was purchased from Sigma (catalog No. H9897). 1M stock solution of MgCl2 was purchased from Sigma (catalog No. M4880). CHAPS, 3% was purchased from Sigma (catalog No. C5070). Nonidet P40 was purchased from Sigma. KOH pellets were purchased from Sigma.
K-ras buffer containing 40 mM Hepes, 10 mM MgCl2, 0.05% CHAPS, 0.01% NP40 with a pH 7.5 was prepared as follows: to a Buffer base containing 4 ml 1M Hepes, 1 ml MgCl2,
93.3 ml d-H2O, pH 7.5 (with KOH pellets), 1.7 ml 3% CHAPS was added, followed by the addition of 1 ml 1% NP40.
Final Conditions of the method included 1 μM KRAS4B (wild type), 0.05 μM SOS1, 1.5 μM mant-GDP. Reagent Preparation included: thawing aliquots of KRAS, SOS, and mant-GDP; preparing 3x KRAS (3 uM) in assay buffer; preparing 3x SOS/mant-GDP (150 nM/4.5 uM) in assay buffer; and preparing 3x compounds in assay buffer.
Assay Procedure (1536) used 3.3 μl, 3x Kras, 3.3 μl 3x compound with preincubate 0 hour, and […] 3x SOS/mant-GDP. A kinetic read measuring fluorescence at 360_450 was performed for 30 min at 30 second intervals.
Reference compound SCH 54292 (reversible inhibitor) at about 100 μM was used with no preincubation. Reagents were only stable for 45 min on ice, and therefore were prepared fresh before each assay. Partial plates (up to 9 columns) were run at a time to minimize effects due to the amount of time it takes to read a whole plate. SOS/mant-GDP were added with an automated pipettor to initiate all reactions at the same time. Assay was typically performed at 0.5% solution in DMSO (compounds prepared in 1.5% DMSO initially).
Clariostar Settings were as follows. Test Name was Kras Kinetic 360-450. Basic settings of the test included Measurement type as Fluorescence (FI), and Microplate name as Corning 3820. Plate mode settings included 61 cycles, 30 second cycle time, and 10 flashes per well. Optic settings were as follows. Excitation wavelength was 360 nm. Emission wavelength was 450 nM. Excitation bandwidth was 12 nm. Emission bandwidth was 12 nm. Dichroic filter 405 was used. D6 Well(s) was used for gain adjustment. No shaking was used. General settings were as follows. Top optic was used. Settling time was 0.1 second. Reading direction was bidirectional, horizontal left to right, and bottom to top. The target temperature was 25° C.

Assay [2] addresses T1, Ras protein. Nature of the assay: GDPx_Icagen_IC50: SOS1-mediated guanine nucleotide exchange rate of Ras (mant-GDP). The format is biochemical. Particulars: SOS1-initiated exchange.
Text: as §1, with “In some embodiments, the IC50” for “The IC50”, “guanine nucleotide-echange” for “guanine nucleotide-exchange”, “Ras was” for “Ras is”, “nucleotide (mant-GDP (used in Icagene assay) or mant-GTP (used in other IC50 assays).” for “nucleotide (mant-GDP).”, “achieved. In other embodiments, other Ras activator proteins may be used. Non-limiting examples of other Ras activator proteins include RasGRP (Ras guanyl-releasing protein).” for “achieved.”
Example 17. Evaluation of Biological Activities: GDPx_Icagen_ICso
as §1

T2 sequence (P01116 1-188 isoform P01116-2): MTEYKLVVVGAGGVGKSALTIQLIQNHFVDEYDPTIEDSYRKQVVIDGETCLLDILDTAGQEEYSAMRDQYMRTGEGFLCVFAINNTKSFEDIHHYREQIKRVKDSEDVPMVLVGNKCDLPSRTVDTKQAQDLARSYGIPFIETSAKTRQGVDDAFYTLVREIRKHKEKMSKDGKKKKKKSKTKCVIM
T1 sequence (P01116 1-188 isoform P01116-2): as above
Sequence of GDP-loaded K-Ras (P01116 1-188 isoform P01116-2): as above

Compound `COC(=O)c1ccc2[nH]c(-n3[nH]c(CSc4nnc(C)s4)c(C)c3=O)nc2c1` [Compound 189, methyl 2-(4-methyl-3-(((5-methyl-1,3,4-thiadiazol-2-yl)thio)methyl)-5-oxo-2,5-dihydro-1H-pyrazol-1-yl)-1H-benzo[d]imidazole-5-carboxylate] returned an IC50 on Ras protein [1] of around 700 nM. Further, the dissociation constant (Kd) at GDP-loaded K-Ras is 413 nM.

`Cc1nnc(SCc2[nH]n(-c3nc4ccccc4[nH]3)c(=O)c2C)s1` [Compound 188, 2-(1H-benzo[d]imidazol-2-yl)-4-methyl-5-(((5-methyl-1,3,4-thiadiazol-2-yl)thio)methyl)-1,2-dihydro-3H-pyrazol-3-one] had an IC50 on Ras protein [1] of around 800 nM. For the same compound, on GDP-loaded K-Ras, the Kd stood at 520 nM.

With `Cc1nnc(SCc2cc(=O)n(-c3nc4ccccc4[nH]3)[nH]2)s1` [Compound 147, 2-(1H-benzo[d]imidazol-2-yl)-5-(((5-methyl-1,3,4-thiadiazol-2-yl)thio)methyl)-1,2-dihydro-3H-pyrazol-3-one], the IC50 against KRAS4B (wild type) was 850 nM; against Ras protein [2], 3300 nM.

As to `O=c1cc(CSc2ccccc2Cl)[nH]n1-c1nc2ccccc2[nH]1` [Compound 167, 2-(1H-benzo[d]imidazol-2-yl)-5-(((2-chlorophenyl)thio)methyl)-1,2-dihydro-3H-pyrazol-3-one], the half-inhibitory concentration (IC50) against KRAS4B (wild type) came out at 300000 nM; against Ras protein [2] it was 200 nM.

For the compound `O=c1cc(CSc2nc3cc(Cl)ccc3s2)[nH]n1-c1nc2ccccc2[nH]1` [Compound 154, 2-(1H-benzo[d]imidazol-2-yl)-5-(((5-chlorobenzo[d]thiazol-2-yl)thio)methyl)-1,2-dihydro-3H-pyrazol-3-one], the values for the IC50 against KRAS4B (wild type) and at Ras protein [2] were 1300 nM and 300 nM, respectively.

With `COc1cccc(SCc2cc(=O)n(-c3nc4ccccc4[nH]3)[nH]2)c1` [Compound 150, 2-(1H-benzo[d]imidazol-2-yl)-5-(((3-methoxyphenyl)thio)methyl)-1,2-dihydro-3H-pyrazol-3-one], the IC50 at KRAS4B (wild type) worked out at 980 nM; against Ras protein [2] it was 200 nM.

A word on the IC50: it is the midpoint of a concentration-inhibition curve. As usually defined, the Kd is a measure of binding affinity in units of concentration.

The values above are taken from patent US20200308165A1, “Compounds as Ras Inhibitors and Use Thereof” (D.E. Shaw Research, LLC, priority 2017, published 2020).
